These results are taken from EP1180991B1, “GAMBOGIC ACID DERIVATIVES AS ACTIVATORS OF CASPASES AND INDUCERS OF APOPTOSIS” (Cytovia, Inc., priority 1999, dated 2000).

Like-named read-outs stand apart in the source and are kept apart here.

The test system of data set [1] is PC-3. Nature of the data set: Inhibition of cell proliferation (GI50) and cell death (LC50), CellTiter 96 (Example 91). Type of data set: cell-based. To be noted: Homo sapiens, PC-3, 48 h. The procedure:
(§1) T-47D, ZR-75-1, PC-3, human prostate cancer cell line DU-145, human non-small cell lung cancer cell line A-549, human small cell lung cancer cell line SHP-77, HL-60 and MRC-5 cells were grown and harvested as in Example 90. […] The samples were mixed by agitation and incubated at 37° C for 2-4 h in a 5% CO2-95% humidity incubator. […] This determines the possible background absorbance of the test compounds. No absorbance for gambogic acid or its analogs or derivatives was found at 490 nm. After the 2-4 h incubation, the samples were read for absorbance as above (ATest).
(§2) The samples were mixed by agitation and incubated at 37° C for 2-4 h in a 5% CO2-95% humidity incubator. Absorbance was read as above, (AT=0) defining absorbance for initial cell number used as baseline in GI50 determinations and (Amin) defining absorbance for media alone used as baseline in LC50 determinations.
(§3) GI50 (dose for50%inhibition of cell proliferation) 50 = 100 x [(ATest-AT = 0)/(Amax-AT = 0)] [formula] LC50 (dose for50%cell death) 50 = 100 x [(ATest-Amin)/(AT = 0-Amin)] [formula]

In the next data set the test system is A-549. The description is as above. To be noted: Homo sapiens, A549, 48 h. It is filed as cell-based. Here is the method: as §1, §2, §3
In data set [2] the test system is HL-60. The description is as above. It is filed as cell-based. To be noted: Homo sapiens, HL-60, 48 h. Here is the method: as §1, §2, §3
Data set [3] deals with T-47D. The data set is described as above. Type of data set: cell-based. To be noted: Homo sapiens, T47D, 48 h. The procedure: as §1, §2, §3
The next data set deals with SHP-77. The data set is described as above. Type of data set: cell-based. To be noted: Homo sapiens, SHP77, 48 h. The procedure:
as §1, §2, §3

The subject of another data set is DU-145. The data set is described as above. Type of data set: cell-based. To be noted: Homo sapiens, DU-145, 48 h. Here is the method:
as §1, §2, §3

Data set [4] concerns ZR-75-1. Described as above. To be noted: Homo sapiens, ZR-75-1, 48 h. Type of data set: cell-based. The procedure:
as §1, §2, §3

Data set [5] concerns PC-3. Description: Caspase cascade activation assay (Example 90). It is filed as cell-based, human. Here is the method: (§4) Human breast cancer cell lines T-47D and ZR-75-1, human prostate cancer cell line PC-3, human leukemia cancer cell line HL-60 and human non-transformed fibroblast cell line MRC-5 cells were grown according to media component mixtures designated by The American Type Culture Collection + 10% FCS (Life Technologies, Inc.), in a 5% CO2 -95% humidity incubator at 37° C. T-47D, ZR-75-1 and PC-3 cells were maintained at a cell density between 30 and 80% confluency and for HL-60 at a cell density of 0.1 to 0.6 x 10^6 cells/ml. Cells were harvested at 600xg and resuspended at 0.65 x 10^6 cells/ml into appropriate media + 10% FCS. […] The samples were mixed by agitation and incubated at room temperature.
(§5) The EC50 (nM) was determined by a sigmoidal dose-response calculation (Prism 2.0, GraphPad Software Inc.). Caspase Activity and Potency

Data set [6] relates to MRC-5. Nature of the data set: Caspase cascade activation assay (Example 90). Type of data set: cell-based, human. Here is the method:
as §4, §5

Data set [7] has as its system HL-60. Nature of the data set: Caspase cascade activation assay (Example 90). Type of data set: cell-based, human. The procedure:
as §4, §5

The test system of data set [8] is T-47D. Description: Caspase cascade activation assay (Example 90). Type of data set: cell-based, human. The procedure:
as §4, §5

The test system of data set [9] is ZR-75-1. Description: Caspase cascade activation assay (Example 90). It is filed as cell-based, human. Here is the method: as §4, §5
Data set [10] has as its system MRC-5. Nature of the data set: Inhibition of cell proliferation (GI50) and cell death (LC50), CellTiter 96 (Example 91). Type of data set: cell-based, human. Here is the method:
as §1, §2, §3

The test system of data set [11] is several cancer cell lines. To be noted: cited from earlier work.

For the compound `COC(=O)/C(C)=C\CC12OC(C)(C)C3CC(C=C4C(=O)c5c(O)c6c(c(CC=C(C)C)c5OC431)OC(C)(CCC=C(C)C)C=C6)C2=O` (stereo not shown) [Example 4, Methyl Gambogate], the GI50 was determined as 500 nM in the data set on PC-3 [1]; 500 nM with A-549; 50 nM in the data set on HL-60 [2]; 40 nM in the data set on T-47D [3]; 500 nM in the data set with SHP-77; 500 nM in the data set with DU-145. Further, the concentration for 50% growth inhibition (GI50) with ZR-75-1 [4] was found to be 300 nM; in the data set on MRC-5 [10] (Homo sapiens, MRC5, 48 h), 200 nM. Moreover, the CC50 stood at 500 nM in the data set on PC-3 [1] (read-out: LC50); 2000 nM in the data set on A-549 (read-out: LC50); 500 nM in the data set on HL-60 [2] (read-out: LC50); 50 nM in the data set on T-47D [3] (read-out: LC50); 500 nM in the data set with SHP-77 (read-out: LC50); 500 nM with DU-145 (read-out: LC50). Besides, the CC50 is 500 nM with ZR-75-1 [4] (read-out: LC50) and 500 nM with MRC-5 [10] (MRC-5 non-transformed fibroblasts, 48 h, dose for 50% cell death). Moreover, the EC50 was 1330 nM with PC-3 [5] (Homo sapiens, PC-3, 24 h); 501 nM in the data set with MRC-5 [6] (Homo sapiens, MRC5, 24 h); 339 nM in the data set on HL-60 [7] (Homo sapiens, HL-60, 24 h); 484 nM in the data set with T-47D [8] (Homo sapiens, T47D, 24 h); 1640 nM in the data set with ZR-75-1 [9] (Homo sapiens, ZR-75-1, 24 h). The “caspase activity (Ratio)” value was found to be 3.9 with PC-3 [5] (PC-3, 24 h incubation, 0.16 to 10 µM final, net RFU ratio to control); 27.8 in the data set with MRC-5 [6] (MRC-5 non-transformed fibroblasts, 24 h incubation, 0.16 to 10 µM final, net RFU ratio to control); 7.7 with HL-60 [7] (HL-60, 24 h incubation, 0.16 to 10 µM final, net RFU ratio to control); 16.8 with T-47D [8] (T-47D, 24 h incubation, 0.16 to 10 µM final, net RFU ratio to control); 14.9 with ZR-75-1 [9] (ZR-75-1, 24 h incubation, 0.16 to 10 µM final, net RFU ratio to control).
For `CC(C)=CCc1c2c(c(O)c3c1OC14C(=CC5CC1C(C)(C)OC4(C/C=C(/C)C(=O)O)C5=O)C3=O)C=CC(C)(C)O2` (stereo not shown) [Example 19, Morellic Acid], the cytotoxicity entry in data set [11] (several cancer cell lines, Cao et al. 1998) is recorded as “significant cytotoxicity”.
In the case of `CC(C)=CCc1c(O)cc(O)c2c1O[C@]13C(=C[C@@H]4C[C@H]1C(C)(C)O[C@@]3(CC=C(C)C)C4=O)C2=O` [forbesione, reference compound], the cytotoxicity result in data set [11] is on record as “significant cytotoxicity”.

A word on the GI50: it is the concentration that inhibits growth by half. Low readings indicate more potent growth inhibition, high ones less potent growth inhibition. In general, EC50 refers to the concentration giving half of the maximal effect. A higher EC50 goes with weaker potency.
